Experimental data reported in patent US5160483A, “Fragment of TNF-α for promoting wound healing” (The University of Tennessee Research Corporation, priority 1991, dated 1992).
Read-outs that look alike come from different tables or passages of the source.

Columns and labels:
[1] = known property of the complete protein; cited from earlier work
[2] = system: fibroblasts; experiment: Zigmond-Hirsch checkerboard analysis of fibroblast migration in chemotaxis chamber; type: cell-based
Procedure: (§1) Solutions of varying concentrations of the fragment of TNF-α comprising amino acids 31 through 68 SEQ ID No.: 1 in phosphate buffered saline (PBS) were added to the lower compartment of chemotaxis chambers. The number of fibroblasts migrating to the lower compartment was counted. The response curve is bell-shaped, with a maximum at 100 nM. An analysis of the effects of varying concentration gradients of the protein fragment (a Zigmond-Hirsch checkerboard analysis) was performed by adding different concentrations of the fragment to the upper and/or lower compartments of a chemotaxis chamber. The number of fibroblasts migrating to the lower surface of each filter was counted.
The fibroblasts migrate from the upper chamber to the lower chamber since there is very little of the fragment in the upper chamber and there is quite a large concentration of the fragment in the lower chamber. This simulates the condition at a wound site where there has been an application of the fragment to the wound. The concentration of the fragment in the surrounding tissue will be quite low compared to the concentration at the wound site. Therefore, the fibroblasts will migrate from the area of low concentration of the fragment to the area of high concentration.

[3] = Cytotoxicity
[4] = system: fibroblasts and monocytes; experiment: Intradermal injection in guinea pigs; type: in vivo
From the text: The composition accomplishes this without the problems attendant on the previously developed materials. The fragment includes amino acids 31 through 68 SEQ ID No.: 1 of TNF-α which has the sequence: [drawing 1]

[5] = system: fibroblasts; experiment: Chemotaxis of fibroblasts in chemotaxis chambers, fragment in lower compartment (FIG. 1); type: cell-based; conditions: fragment in PBS in lower compartment of chemotaxis chambers
Procedure: as §1

Substance: TNF-α
- cytotoxicity [1]: known to be a cytotoxin

Substance: fragment of TNF-α comprising amino acids 31 through 68 SEQ ID No.: 1: 38-residue synthetic polypeptide, amino acids 31 through 68 of TNF-α (SEQ ID No.: 1), about 3,800 Da (RRANALLANGVELRDNQLVVPSEGLYLIYSQVLFKGQG; Tumor necrosis factor, soluble form; UniProt P01375 107-144, looked up, fragment)
- number of fibroblasts migrating to the lower surface of each filter ([2]; upper compartment 0 nM, lower compartment 21 nM): 31 ± 4
- number of fibroblasts migrating to the lower surface of each filter ([2]; upper compartment 0 nM, lower compartment 41 nM): 57 ± 3
- number of fibroblasts migrating to the lower surface of each filter ([2]; upper compartment 0 nM, lower compartment 164 nM): 73 ± 4
- number of fibroblasts migrating to the lower surface of each filter ([2]; upper compartment 0 nM, lower compartment 329 nM): 86 ± 13
- number of fibroblasts migrating to the lower surface of each filter ([2]; upper compartment 21 nM, lower compartment 0 nM): 20 ± 6
- number of fibroblasts migrating to the lower surface of each filter ([2]; upper compartment 21 nM, lower compartment 21 nM): 9 ± 1
- number of fibroblasts migrating to the lower surface of each filter ([2]; upper compartment 21 nM, lower compartment 41 nM): 49 ± 7
- number of fibroblasts migrating to the lower surface of each filter ([2]; upper compartment 21 nM, lower compartment 164 nM): 46 ± 2
- number of fibroblasts migrating to the lower surface of each filter ([2]; upper compartment 21 nM, lower compartment 329 nM): 67 ± 2
- number of fibroblasts migrating to the lower surface of each filter ([2]; upper compartment 41 nM, lower compartment 0 nM): 31 ± 2
- number of fibroblasts migrating to the lower surface of each filter ([2]; upper compartment 41 nM, lower compartment 21 nM): 28 ± 5
- number of fibroblasts migrating to the lower surface of each filter ([2]; upper compartment 41 nM, lower compartment 41 nM): 26 ± 4
- number of fibroblasts migrating to the lower surface of each filter ([2]; upper compartment 41 nM, lower compartment 164 nM): 47 ± 5
- number of fibroblasts migrating to the lower surface of each filter ([2]; upper compartment 41 nM, lower compartment 329 nM): 57 ± 6
- number of fibroblasts migrating to the lower surface of each filter ([2]; upper compartment 164 nM, lower compartment 0 nM): 14 ± 2
- number of fibroblasts migrating to the lower surface of each filter ([2]; upper compartment 164 nM, lower compartment 21 nM): 11 ± 1
- number of fibroblasts migrating to the lower surface of each filter ([2]; upper compartment 164 nM, lower compartment 41 nM): 16 ± 3
- number of fibroblasts migrating to the lower surface of each filter ([2]; upper compartment 164 nM, lower compartment 164 nM): 22 ± 4
- number of fibroblasts migrating to the lower surface of each filter ([2]; upper compartment 164 nM, lower compartment 329 nM): 43 ± 3
- number of fibroblasts migrating to the lower surface of each filter ([2]; upper compartment 329 nM, lower compartment 0 nM): 16 ± 3
- number of fibroblasts migrating to the lower surface of each filter ([2]; upper compartment 329 nM, lower compartment 21 nM): 10 ± 1
- number of fibroblasts migrating to the lower surface of each filter ([2]; upper compartment 329 nM, lower compartment 41 nM): 9 ± 1
- number of fibroblasts migrating to the lower surface of each filter ([2]; upper compartment 329 nM, lower compartment 164 nM): 12 ± 2
- number of fibroblasts migrating to the lower surface of each filter ([2]; upper compartment 329 nM, lower compartment 329 nM): 8 ± 1
- type of fibroblast migration induced (checkerboard analysis) ([2]; varying concentration gradients, Table I): induced mostly chemotactic migration of fibroblasts
- cytotoxicity [3]: without any showing of cytotoxicity
- amount of connective tissue at the injection site [4]: increase in the amount of connective tissue at the injection site
- migration of fibroblasts and monocytes into the area of the wound [4]: increased migration of fibroblasts and monocytes into the area of the wound
- concentration at the maximum of the bell-shaped fibroblast migration response curve [5]: 100 nM
